Source: the SangsterLogP compilation

Assay: method code SF-HPLC, from DOI: 10.1021/ac9902291

Row | logP | Structure (SMILES)
1 | 3.71 | Cc1cc2ccccc2s1
2 | 4.5 | c1ccc2cc3sccc3cc2c1
3 | 4.55 | c1ccc2c(c1)ccc1ccsc12
4 | 3.57 | Cc1cccc2sccc12
5 | 3.85 | Cc1cccc2ccsc12
6 | 4.41 | c1ccc2c(c1)ccc1sccc12
7 | 5.35 | c1ccc2c(c1)ccc1c3ccsc3ccc21
8 | 4.95 | c1cc2ccc3cccc4sc(c1)c2c34
9 | 1.01 | O=S1(=O)C=Cc2ccccc21

Row | Structure (SMILES) | logP
10 | c1ccc2c(c1)sc1ccccc12 | 4.36
11 | c1ccc2c(c1)ccc1sc3ccccc3c12 | 5.19
